Assay results published in patent US11547681B2, “N-acylethanolamide derivatives and uses thereof” (ELIEM THERAPEUTICS, INC., priority 2016, dated 2023).

Assay: in vitro
Conditions: male, Beagle, dog; for Concentration (μM) of analyte PEA, 0 min / Concentration (μM) of analyte PEA, 10 min / Concentration (μM) of analyte PEA, 20 min / Concentration (μM) of analyte PEA, 30 min / Concentration (μM) of analyte PEA, 60 min / % Remaining of Initial (n = 1), 0 min / % Remaining of Initial (n = 1), 10 min / % Remaining of Initial (n = 1), 20 min / % Remaining of Initial (n = 1), 30 min / % Remaining of Initial (n = 1), 60 min / Measured concentration of PEA (analyte) / % Remaining of Initial / Concentration, analyte PEA / % Remaining of Initial (n = 1): 1 μM
Experimental: (§1) Reaction mixture, minus cofactors, was prepared as described below. Test article was added into the reaction mixture at a final concentration of 1 μM. […] An aliquot of the reaction mixture (without cofactor cocktail) was equilibrated in a shaking water bath at 37° C. for 3 minutes. The reaction was initiated by the addition of cofactor cocktail, and the mixture was incubated in a shaking water bath at 37° C. Aliquots (100 μL) were withdrawn at 0, 10, 20, 30, and 60 minutes. Test article samples were immediately combined with 300 μL of ice-cold acetonitrile containing 1% formic acid. Control samples were immediately combined with 400 μL of ice-cold 50/50 acetonitrile (ACN)/dH2O containing 0.1% formic acid and internal standard to terminate the reaction. Samples were then mixed and centrifuged to precipitate proteins. Calibration standards were prepared in matched matrix. Samples and standards were assayed by LC-MS/MS using electrospray ionization for both the dosed prodrug and the expected drug (PEA). Analytical conditions are outlined in Appendix 8-1. Test article concentration at each time point was compared to test article concentration at time 0 to determine the percent remaining at each time point. Halflives were calculated using GraphPad software, fitting to a single-phase exponential decay equation.
as §1, with “for 5” for “for 3”, “minutes. Reaction” for “minutes. The reaction”, “and” for “and the”, “both” for “both the”, “Appendix 10-1.” for “Appendix 8-1.”
Reaction mixture, minus cofactors, was prepared as described below. Test article was added into the reaction mixture at a final concentration of 1 μM. […] An aliquot of the reaction mixture (without cofactor cocktail) was equilibrated in a shaking water bath at 37° C. for 3 minutes. Reaction was initiated by the addition of cofactor cocktail, and the mixture was incubated in a shaking water bath at 37° C. Aliquots (100 μL) were withdrawn at 0, 10, 20, 30, and 60 minutes. Test article samples were immediately combined with 300 μL of ice-cold acetonitrile containing 1% formic acid. Control samples were immediately combined with 400 μL of ice-cold 50/50 acetonitrile (ACN)/dH2O containing 0.1% formic acid and internal standard to terminate the reaction. Samples were then mixed and centrifuged to precipitate proteins. Calibration standards were prepared in matched matrix. Samples and standards were assayed by LC-MS/MS using electrospray ionization for both dosed prodrug and expected drug (PEA). Analytical conditions are outlined in Appendix 13-1. Test article concentration at each time point was compared to test article concentration at time 0 to determine the percent remaining at each time point. Halflives were calculated using GraphPad software, fitting to a single-phase exponential decay equation.

SMILES	Concentration (μM) of analyte PEA, 0 min (0 min) [µM]	Concentration (μM) of analyte PEA, 10 min (10 min) [µM]	Concentration (μM) of analyte PEA, 20 min (20 min) [µM]	Concentration (μM) of analyte PEA, 30 min (30 min) [µM]	Concentration (μM) of analyte PEA, 60 min (60 min) [µM]	% Remaining of Initial (n = 1), 0 min (s9, 0 h) [%]	% Remaining of Initial (n = 1), 10 min (s9, 10 min) [%]	% Remaining of Initial (n = 1), 20 min (s9, 20 min) [%]	% Remaining of Initial (n = 1), 30 min (s9, 0.5 h) [%]	% Remaining of Initial (n = 1), 60 min (s9, 1 h) [%]	microsomal CLint at 1 μM (s9, CLint (mL/min/mg protein)) [µL/min/mg]	half-life at 1 μM (s9, Half-life (min)) [min]	other results
CCCCCCCCCCCCCCCC(=O)NCCOC(=O)CCC [Compound I-2]	0.11	0.40	0.50	0.53	0.54	100	36	12	4.2	<1.0	–	–	–
CCCCCCCCCCCCCCCC(=O)NCCOC(=O)CCC(=O)OCC(COC(=O)CCCCCCC)OC(=O)CCCCCCC (stereo not drawn) [Compound I-3, PEA-Succinate-Glycerol-Di-Caprylic]	0.015	0.23	0.28	0.29	0.50	100	46	46	34	18	36.8	19	–
CC/C=C\C/C=C\C/C=C\C/C=C\C/C=C\CCCC(=O)OCCNC(=O)CCCCCCCCCCCCCCC [Compound I-5]	0.13	0.26	0.25	0.25	0.28	100	50	48	36	36	26.3	26	–
CCCCC/C=C\C/C=C\CCCCCCCC(=O)OCCNC(=O)CCCCCCCCCCCCCCC [Compound I-6]	0.26	0.42	0.38	0.35	0.36	100	54	53	45	38	20.1	34	–
CCCCCCCCCCCCCCCC(=O)NCCOC(=O)CCC(=O)OC[C@H]1O[C@@](CO)(O[C@H]2O[C@H](CO)[C@@H](O)[C@H](O)[C@H]2O)[C@@H](O)[C@@H]1O [Compound I-7]	0.38	0.36	0.55	0.51	0.50	100	1.1	<1.0	<1.0	<1.0	452	1.5	–
CCCCCCCCCCCCCCCC(=O)NCCOC(=O)CCC(=O)OC(CO)CO [Compound I-8]	–	–	–	–	–	–	–	–	–	–	–	–	Measured concentration of PEA (analyte) (0 min): 0.33 µM; Measured concentration of PEA (analyte) (10 min): 0.71 µM; Measured concentration of PEA (analyte) (20 min): 0.81 µM; Measured concentration of PEA (analyte) (30 min): 0.67 µM; Measured concentration of PEA (analyte) (60 min): 0.81 µM; % Remaining of Initial (s9, 0 h): 100%; % Remaining of Initial (s9, 10 min): <1.0%; % Remaining of Initial (s9, 20 min): <1.0%; % Remaining of Initial (s9, 0.5 h): <1.0%; % Remaining of Initial (s9, 1 h): <1.0%; microsomal CLint at 1 μM (s9, CLint): > 69.3 µL/min/mg; half-life at 1 μM (s9, Half-life): < 10 min
CCCCCCCCCCCCCCCC(=O)NCCOC(=O)CCC(=O)OCC(O)CO (stereo not drawn) [Compound I-9]	0.26	0.48	0.47	0.46	0.45	100	<1.0	<1.0	<1.0	<1.0	> 691	< 1	–
CCCCCCCCCCCCCCCC(=O)NCCOC(=O)CCC(=O)OCC(COC(=O)CCC)OC(=O)CCC (stereo not drawn) [Compound I-11]	0.032	0.23	0.38	0.74	0.88	100	1.8	<1.0	<1.0	<1.0	–	–	–
CCCCC/C=C\C/C=C\CCCCCCCC(=O)OCC(COC(=O)CCC(=O)OCCNC(=O)CCCCCCCCCCCCCCC)OC(=O)CCCCCCC/C=C\C/C=C\CCCCC (stereo not drawn) [Compound I-13]	–	–	–	–	–	–	–	–	–	–	–	–	Concentration, analyte PEA (0 min): 58 nM; Concentration, analyte PEA (10 min): 95 nM; Concentration, analyte PEA (20 min): 100 nM; Concentration, analyte PEA (30 min): 89 nM; Concentration, analyte PEA (60 min): 170 nM; % Remaining of Initial (n = 1) (s9, 0 h): 100%; % Remaining of Initial (n = 1) (s9, 10 min): 67%; % Remaining of Initial (n = 1) (s9, 20 min): 63%; % Remaining of Initial (n = 1) (s9, 0.5 h): 46%; % Remaining of Initial (n = 1) (s9, 1 h): 49%
CCCCCCCCCCCCCCCC(=O)NCCOC(=O)CCC(=O)OC(COC(=O)CCC)COC(=O)CCC [Compound I-16]	–	–	–	–	–	–	–	–	–	–	–	–	Measured concentration of PEA (analyte) (0 min): 0.042 µM; Measured concentration of PEA (analyte) (10 min): 0.50 µM; Measured concentration of PEA (analyte) (20 min): 0.57 µM; Measured concentration of PEA (analyte) (30 min): 0.54 µM; Measured concentration of PEA (analyte) (60 min): 0.68 µM; % Remaining of Initial (s9, 0 h): 100%; % Remaining of Initial (s9, 10 min): 1.7%; % Remaining of Initial (s9, 20 min): <1.0%; % Remaining of Initial (s9, 0.5 h): <1.0%; % Remaining of Initial (s9, 1 h): <1.0%; microsomal CLint at 1 μM (s9, CLint): > 69.3 µL/min/mg; half-life at 1 μM (s9, Half-life): < 10 min
